Reference: the supplement of paper PMC10307832

Key:
Test in all cases: relative viability (nuclei count vs DMSO), 5 days (fraction); higher = more cells survive
SK-MES-1 = tested on: SK-MES-1
Method in brief: (§1)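 Lung cancer cell lines in 1536-well plates were dosed by pin tool the day after seeding, either with one drug alone or with a fixed anchor-drug dose plus five library-drug doses (not always all listed) in √10 steps. After 5 days, cells were fixed and their nuclei stained in one step (final 0.05% Triton X-100, 1% formaldehyde, 1 ug/ml Hoechst), then counted on 4× images. Relative viability is the nuclei count in treated wells divided by that in vehicle wells. Values are medians of duplicate plates.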

NCI-H3122 = tested on: NCI-H3122
Method in brief: as §1

HCC-78 = tested on: HCC-78
Method in brief: as §1

NCI-H596 = tested on: NCI-H596
Method in brief: as §1

NCI-H2085 = tested on: NCI-H2085
Method in brief: as §1

RERF-LC-KJ = tested on: RERF-LC-KJ
Method in brief: as §1

NCI-H838 = tested on: NCI-H838
Method in brief: as §1

PC-14 = tested on: PC-14
Method in brief: as §1

NCI-H1993 = tested on: NCI-H1993
Method in brief: as §1

NCI-H2228 = tested on: NCI-H2228
Method in brief: as §1

LC-2-ad = tested on: LC-2-ad
Method in brief: as §1

SW 1573 = tested on: SW 1573
Method in brief: as §1

NCI-H2347 = tested on: NCI-H2347
Method in brief: as §1

NCI-H2405 = tested on: NCI-H2405
Method in brief: as §1

HCC-366 = tested on: HCC-366
Method in brief: as §1

LK-2 = tested on: LK-2
Method in brief: as §1

EMC-BAC-2 = tested on: EMC-BAC-2
Method in brief: as §1

NCI-H1355 = tested on: NCI-H1355
Method in brief: as §1

HOP-62 = tested on: HOP-62
Method in brief: as §1

CAL-12T = tested on: CAL-12T
Method in brief: as §1

NCI-H1734 = tested on: NCI-H1734
Method in brief: as §1

ChaGo-K-1 = tested on: ChaGo-K-1
Method in brief: as §1

NCI-H2009 = tested on: NCI-H2009
Method in brief: as §1

O=c1[nH]c2ccccc2n1C1CCN(CCCC(c2ccc(F)cc2)c2ccc(F)cc2)CC1 [Pimozide] + CS(=O)(=O)N1CCN(Cc2cc3nc(-c4cccc5[nH]ncc45)nc(N4CCOCC4)c3s2)CC1 [Pictilisib] (partner 1 µM)
relative viability (SK-MES-1; first compound 0.08 µM): 0.305
relative viability (SK-MES-1; first compound 0.253 µM): 0.308
relative viability (SK-MES-1; first compound 0.8 µM): 0.36
relative viability (SK-MES-1; first compound 2.53 µM): 0.38
relative viability (SK-MES-1; first compound 8 µM): 0.341
relative viability (NCI-H3122; first compound 0.08 µM): 0.523
relative viability (NCI-H3122; first compound 0.253 µM): 0.588
relative viability (NCI-H3122; first compound 0.8 µM): 0.514
relative viability (NCI-H3122; first compound 2.53 µM): 0.594
relative viability (NCI-H3122; first compound 8 µM): 0.573
relative viability (HCC-78; first compound 0.08 µM): 0.214
relative viability (HCC-78; first compound 0.253 µM): 0.244
relative viability (HCC-78; first compound 0.8 µM): 0.187
relative viability (HCC-78; first compound 2.53 µM): 0.19
relative viability (HCC-78; first compound 8 µM): 0.202
relative viability (NCI-H596; first compound 0.08 µM): 0.414
relative viability (NCI-H596; first compound 0.253 µM): 0.488
relative viability (NCI-H596; first compound 0.8 µM): 0.251
relative viability (NCI-H596; first compound 2.53 µM): 0.356
relative viability (NCI-H596; first compound 8 µM): 0.344
relative viability (NCI-H2085; first compound 0.08 µM): 0.446
relative viability (NCI-H2085; first compound 0.253 µM): 0.532
relative viability (NCI-H2085; first compound 0.8 µM): 0.525
relative viability (NCI-H2085; first compound 2.53 µM): 0.486
relative viability (NCI-H2085; first compound 8 µM): 0.415
relative viability (RERF-LC-KJ; first compound 0.08 µM): 0.597
relative viability (RERF-LC-KJ; first compound 0.253 µM): 0.524
relative viability (RERF-LC-KJ; first compound 0.8 µM): 0.522
relative viability (RERF-LC-KJ; first compound 2.53 µM): 0.505
relative viability (RERF-LC-KJ; first compound 8 µM): 0.452
relative viability (NCI-H838; first compound 0.08 µM): 0.484
relative viability (NCI-H838; first compound 0.253 µM): 0.454
relative viability (NCI-H838; first compound 0.8 µM): 0.444
relative viability (NCI-H838; first compound 2.53 µM): 0.447
relative viability (NCI-H838; first compound 8 µM): 0.427
relative viability (PC-14; first compound 0.253 µM): 0.631
relative viability (PC-14; first compound 0.8 µM): 0.738
relative viability (PC-14; first compound 2.53 µM): 0.716
relative viability (PC-14; first compound 8 µM): 0.634
relative viability (NCI-H1993; first compound 0.08 µM): 0.751
relative viability (NCI-H1993; first compound 0.253 µM): 0.902
relative viability (NCI-H1993; first compound 0.8 µM): 0.778
relative viability (NCI-H1993; first compound 2.53 µM): 0.91
relative viability (NCI-H1993; first compound 8 µM): 0.846
relative viability (NCI-H2228; first compound 0.08 µM): 0.378
relative viability (NCI-H2228; first compound 0.253 µM): 0.386
relative viability (NCI-H2228; first compound 0.8 µM): 0.312
relative viability (NCI-H2228; first compound 2.53 µM): 0.34
relative viability (NCI-H2228; first compound 8 µM): 0.29
relative viability (LC-2-ad; first compound 0.08 µM): 0.594
relative viability (LC-2-ad; first compound 0.253 µM): 0.405
relative viability (LC-2-ad; first compound 0.8 µM): 0.461
relative viability (LC-2-ad; first compound 2.53 µM): 0.553
relative viability (LC-2-ad; first compound 8 µM): 0.305
relative viability (SW 1573; first compound 0.08 µM): 0.534
relative viability (SW 1573; first compound 0.253 µM): 0.462
relative viability (SW 1573; first compound 0.8 µM): 0.47
relative viability (SW 1573; first compound 2.53 µM): 0.449
relative viability (SW 1573; first compound 8 µM): 0.416
relative viability (NCI-H2347; first compound 0.08 µM): 0.611
relative viability (NCI-H2347; first compound 0.253 µM): 0.599
relative viability (NCI-H2347; first compound 0.8 µM): 0.601
relative viability (NCI-H2347; first compound 2.53 µM): 0.605
relative viability (NCI-H2347; first compound 8 µM): 0.605
relative viability (NCI-H2405; first compound 0.08 µM): 0.482
relative viability (NCI-H2405; first compound 0.253 µM): 0.371
relative viability (NCI-H2405; first compound 0.8 µM): 0.422
relative viability (NCI-H2405; first compound 2.53 µM): 0.42
relative viability (NCI-H2405; first compound 8 µM): 0.349
relative viability (HCC-366; first compound 0.08 µM): 0.164
relative viability (HCC-366; first compound 0.253 µM): 0.154
relative viability (HCC-366; first compound 0.8 µM): 0.165
relative viability (HCC-366; first compound 2.53 µM): 0.0834
relative viability (HCC-366; first compound 8 µM): 0.118
relative viability (LK-2; first compound 0.08 µM): 0.556
relative viability (LK-2; first compound 0.253 µM): 0.605
relative viability (LK-2; first compound 0.8 µM): 0.454
relative viability (LK-2; first compound 2.53 µM): 0.547
relative viability (LK-2; first compound 8 µM): 0.553
relative viability (EMC-BAC-2; first compound 0.08 µM): 0.486
relative viability (EMC-BAC-2; first compound 0.253 µM): 0.51
relative viability (EMC-BAC-2; first compound 0.8 µM): 0.549
relative viability (EMC-BAC-2; first compound 2.53 µM): 0.532
relative viability (EMC-BAC-2; first compound 8 µM): 0.54
relative viability (NCI-H1355; first compound 0.08 µM): 0.371
relative viability (NCI-H1355; first compound 0.253 µM): 0.417
relative viability (NCI-H1355; first compound 0.8 µM): 0.436
relative viability (NCI-H1355; first compound 2.53 µM): 0.466
relative viability (NCI-H1355; first compound 8 µM): 0.357
relative viability (HOP-62; first compound 0.08 µM): 0.687
relative viability (HOP-62; first compound 0.253 µM): 0.694
relative viability (HOP-62; first compound 2.53 µM): 0.687
relative viability (HOP-62; first compound 8 µM): 0.635
relative viability (CAL-12T; first compound 0.08 µM): 0.399
relative viability (CAL-12T; first compound 0.253 µM): 0.244
relative viability (CAL-12T; first compound 0.8 µM): 0.418
relative viability (CAL-12T; first compound 2.53 µM): 0.462
relative viability (CAL-12T; first compound 8 µM): 0.332
relative viability (NCI-H1734; first compound 0.08 µM): 0.45
relative viability (NCI-H1734; first compound 0.253 µM): 0.444
relative viability (NCI-H1734; first compound 0.8 µM): 0.489
relative viability (NCI-H1734; first compound 2.53 µM): 0.411
relative viability (NCI-H1734; first compound 8 µM): 0.46
relative viability (ChaGo-K-1; first compound 0.08 µM): 0.636
relative viability (ChaGo-K-1; first compound 0.253 µM): 0.614
relative viability (ChaGo-K-1; first compound 0.8 µM): 0.694
relative viability (ChaGo-K-1; first compound 2.53 µM): 0.762
relative viability (ChaGo-K-1; first compound 8 µM): 0.569
relative viability (NCI-H2009; first compound 0.08 µM): 0.853
relative viability (NCI-H2009; first compound 0.253 µM): 0.923
relative viability (NCI-H2009; first compound 0.8 µM): 0.786
relative viability (NCI-H2009; first compound 2.53 µM): 0.769
relative viability (NCI-H2009; first compound 8 µM): 0.575
